# Measurements from patent US8614201B2 (Janssen Pharmaceutica NV, priority 2009, dated 2013).
# pIC50: −log10 of the molar value.
# Target: Human TRPA1 (Homo sapiens, UniProt O75762)
# Assay: Assay 1: In vitro cellular testing of TRPA1 modulation (CHO-TREx, Fluo-3 calcium fluorescence, AITC agonist)
# Assay type: cell-based
# Parameters: expressed in transfected cells; host or cells: CHO-TREx cells (Invitrogen), vector pcDNA4/TO
# Details: CHO-TREx cells expressing human TRPA1; Fluo-3 fluorescence (FLIPR/Tetra); agonist 15 μM allyl isothiocyanate (AITC); 30 minute antagonist incubation
# Summary of the method: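 Tetracycline-induced CHO-TREx cells stably expressing human TRPA1, loaded with 4 μM Fluo-3 AM, preincubated 30 min with compound (serial dilution typically from 10 μM, three-fold steps) in HEPES saline pH 7.4. Fluorescence change over 3 min after 15 μM AITC; IC50 from Hill fit versus no-antagonist and 10 μM ruthenium red controls.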
# Sequence of Human TRPA1 (O75762 whole entry): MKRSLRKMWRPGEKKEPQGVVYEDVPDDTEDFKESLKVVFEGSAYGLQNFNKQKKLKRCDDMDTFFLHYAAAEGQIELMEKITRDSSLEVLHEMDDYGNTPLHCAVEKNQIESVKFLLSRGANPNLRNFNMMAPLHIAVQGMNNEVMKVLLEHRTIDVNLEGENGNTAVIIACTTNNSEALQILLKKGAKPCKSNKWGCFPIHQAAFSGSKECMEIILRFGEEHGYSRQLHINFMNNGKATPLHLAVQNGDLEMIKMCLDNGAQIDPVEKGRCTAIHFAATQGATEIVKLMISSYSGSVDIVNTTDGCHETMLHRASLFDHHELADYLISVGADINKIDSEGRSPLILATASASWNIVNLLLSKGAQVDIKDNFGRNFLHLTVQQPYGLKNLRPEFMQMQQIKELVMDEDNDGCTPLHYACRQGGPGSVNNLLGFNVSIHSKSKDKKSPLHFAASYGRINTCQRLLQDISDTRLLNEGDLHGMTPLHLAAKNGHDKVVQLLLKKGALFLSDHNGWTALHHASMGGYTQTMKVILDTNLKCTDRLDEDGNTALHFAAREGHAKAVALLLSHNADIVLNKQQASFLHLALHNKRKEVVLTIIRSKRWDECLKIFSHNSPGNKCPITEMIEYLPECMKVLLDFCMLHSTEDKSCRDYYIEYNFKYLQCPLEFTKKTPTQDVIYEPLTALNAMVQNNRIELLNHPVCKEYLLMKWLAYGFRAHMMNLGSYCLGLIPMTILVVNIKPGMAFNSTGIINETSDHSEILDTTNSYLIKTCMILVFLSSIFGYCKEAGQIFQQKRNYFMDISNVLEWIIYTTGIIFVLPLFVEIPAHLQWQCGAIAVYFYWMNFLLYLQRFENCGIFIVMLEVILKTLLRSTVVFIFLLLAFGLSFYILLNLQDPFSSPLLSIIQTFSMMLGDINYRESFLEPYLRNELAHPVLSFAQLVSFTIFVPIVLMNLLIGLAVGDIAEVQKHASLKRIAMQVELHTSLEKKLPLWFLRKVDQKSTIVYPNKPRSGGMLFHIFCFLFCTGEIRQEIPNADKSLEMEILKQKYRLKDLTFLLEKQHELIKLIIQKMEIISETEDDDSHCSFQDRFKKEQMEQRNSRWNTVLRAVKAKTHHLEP
row,Compound,pIC50
1,"O=C(NCc1cc(NCc2ccccn2)nc(-c2ccc(C(F)(F)F)cc2)c1)[C@@H]1CCCN1S(=O)(=O)c1ccc(F)cc1 [Example 392, 1-[(4-Fluorophenyl)sulfonyl]-N-({2-[(pyridin-2-ylmethyl)amino]-6-[4-(trifluoromethyl)phenyl]pyridin-4-yl}methyl)-L-prolinamide]",6.38
2,"CN(C)c1cc(CNC(=O)[C@@H]2CC(F)(F)CN2S(=O)(=O)c2ccc(F)cc2)cc(-c2ccc(C(F)(F)F)cc2)n1 [Example 393, N-({2-(Dimethylamino)-6-[4-(trifluoromethyl)phenyl]pyridin-4-yl}methyl)-4,4-difluoro-1-[(4-fluorophenyl)sulfonyl]-L-prolinamide]",6.34
3,"O=C(NCc1cc(NCc2ccccc2)nc(-c2ccc(C(F)(F)F)cc2)c1)[C@@H]1CC(F)(F)CN1S(=O)(=O)c1ccc(F)cc1 [Example 394, N-({2-(Benzylamino)-6-[4-(trifluoromethyl)phenyl]pyridin-4-yl}methyl)-4,4-difluoro-1-[(4-fluorophenyl)sulfonyl]-L-prolinamide]",6.22
4,"O=C(NCc1cc(NCc2cccnc2)nc(-c2ccc(C(F)(F)F)cc2)c1)[C@@H]1CCCN1S(=O)(=O)c1ccc(F)cc1 [Example 395, 1-[(4-Fluorophenyl)sulfonyl]-N-({2-[(pyridin-3-ylmethyl)amino]-6-[4-(trifluoromethyl)phenyl]pyridin-4-yl}methyl)-L-prolinamide]",5.53
5,"CC1CCCN1c1cc(CNC(=O)[C@@H]2CC(F)(F)CN2S(=O)(=O)c2ccc(F)cc2)cc(-c2ccc(C(F)(F)F)cc2)n1 (stereo partly drawn) [Example 396, 4,4-Difluoro-1-[(4-fluorophenyl)sulfonyl]-N-({2-(2-methylpyrrolidin-1-yl)-6-[4-(trifluoromethyl)phenyl]pyridin-4-yl}methyl)-L-prolinamide]",5.75
6,"CC1CCCN1c1cc(CNC(=O)[C@@H]2CC(F)(F)CN2S(=O)(=O)c2ccc(Cl)s2)cc(-c2ccc(C(F)(F)F)cc2)n1 (stereo partly drawn) [Example 397, 1-[(5-Chlorothiophen-2-yl)sulfonyl]-4,4-difluoro-N-({2-(2-methylpyrrolidin-1-yl)-6-[4-(trifluoromethyl)phenyl]pyridin-4-yl}methyl)-L-prolinamide]",5.53
7,"CC(Nc1cc(CNC(=O)[C@@H]2CC(F)(F)CN2S(=O)(=O)c2ccc(F)cc2)cc(-c2ccc(C(F)(F)F)cc2)n1)c1cccnc1 (stereo partly drawn) [Example 398, 4,4-Difluoro-1-[(4-fluorophenyl)sulfonyl]-N-({2-[(1-pyridin-3-ylethyl)amino]-6-[4-(trifluoromethyl)phenyl]pyridin-4-yl}methyl)-L-prolinamide]",5.15
8,"CC(Nc1cc(CNC(=O)[C@@H]2CC(F)(F)CN2S(=O)(=O)c2ccc(Cl)s2)cc(-c2ccc(C(F)(F)F)cc2)n1)c1cccnc1 (stereo partly drawn) [Example 399, 1-[(5-Chlorothiophen-2-yl)sulfonyl]-4,4-difluoro-N-({2-[(1-pyridin-3-ylethyl)amino]-6-[4-(trifluoromethyl)phenyl]pyridin-4-yl}methyl)-L-prolinamide]",5.58
9,"CC(Nc1cc(CNC(=O)[C@@H]2CC(F)(F)CN2S(=O)(=O)c2ccc(Cl)s2)cc(-c2ccc(C(F)(F)F)cc2)n1)c1ccncc1 (stereo partly drawn) [Example 400, 1-[(5-Chlorothiophen-2-yl)sulfonyl]-4,4-difluoro-N-({2-[(1-pyridin-4-ylethyl)amino]-6-[4-(trifluoromethyl)phenyl]pyridin-4-yl}methyl)-L-prolinamide]",5.74
10,"CC(Nc1cc(CNC(=O)[C@@H]2CC(F)(F)CN2S(=O)(=O)c2ccc(F)cc2)cc(-c2ccc(C(F)(F)F)cc2)n1)c1ccncc1 (stereo partly drawn) [Example 401, 4,4-Difluoro-1-[(4-fluorophenyl)sulfonyl]-N-({2-[(1-pyridin-4-ylethyl)amino]-6-[4-(trifluoromethyl)phenyl]pyridin-4-yl}methyl)-L-prolinamide]",5.60
11,"CC(Nc1cc(CNC(=O)[C@@H]2CCCN2S(=O)(=O)c2ccc(F)cc2)cc(-c2ccc(C(F)(F)F)cc2)n1)c1ccncc1 (stereo partly drawn) [Example 402, 1-[(4-Fluorophenyl)sulfonyl]-N-({2-[(1-pyridin-4-ylethyl)amino]-6-[4-(trifluoromethyl)phenyl]pyridin-4-yl}methyl)-L-prolinamide]",6.23
12,"CC(Nc1cc(CNC(=O)[C@@H]2CCCN2S(=O)(=O)c2ccc(Cl)s2)cc(-c2ccc(C(F)(F)F)cc2)n1)c1ccncc1 (stereo partly drawn) [Example 403, 1-[(5-Chlorothiophen-2-yl)sulfonyl]-N-({2-[(1-pyridin-4-ylethyl)amino]-6-[4-(trifluoromethyl)phenyl]pyridin-4-yl}methyl)-L-prolinamide]",6.33
13,"CC(Nc1cc(CNC(=O)[C@@H]2C=CCN2S(=O)(=O)c2ccc(Cl)s2)cc(-c2ccc(C(F)(F)F)cc2)n1)c1ccncc1 (stereo partly drawn) [Example 404, (2S)-1-[(5-Chlorothiophen-2-yl)sulfonyl]-N-({2-[(1-pyridin-4-ylethyl)amino]-6-[4-(trifluoromethyl)phenyl]pyridin-4-yl}methyl)-2,5-dihydro-1H-pyrrole-2-carboxamide]",5.72
14,"CC(Nc1cc(CNC(=O)[C@@H]2CCCN2S(=O)(=O)c2ccc(Cl)s2)cc(-c2ccc(C(F)(F)F)cc2)n1)c1cccnc1 (stereo partly drawn) [Example 405, 1-[(5-Chlorothiophen-2-yl)sulfonyl]-N-({2-[(1-pyridin-3-ylethyl)amino]-6-[4-(trifluoromethyl)phenyl]pyridin-4-yl}methyl)-L-prolinamide]",6.32
15,"CC(Nc1cc(CNC(=O)[C@@H]2C=CCN2S(=O)(=O)c2ccc(F)cc2)cc(-c2ccc(C(F)(F)F)cc2)n1)c1ccccc1 (stereo partly drawn) [Example 406, (2S)-1-[(4-Fluorophenyl)sulfonyl]-N-({2-[(1-phenylethyl)amino]-6-[4-(trifluoromethyl)phenyl]pyridin-4-yl}methyl)-2,5-dihydro-1H-pyrrole-2-carboxamide]",6.08
16,"CC(Nc1cc(CNC(=O)[C@@H]2C=CCN2S(=O)(=O)c2ccc(Cl)s2)cc(-c2ccc(C(F)(F)F)cc2)n1)c1ccccc1 (stereo partly drawn) [Example 407, (2S)-1-[(5-Chlorothiophen-2-yl)sulfonyl]-N-({2-[(1-phenylethyl)amino]-6-[4-(trifluoromethyl)phenyl]pyridin-4-yl}methyl)-2,5-dihydro-1H-pyrrole-2-carboxamide]",6.73
17,"CC(Nc1cc(CNC(=O)[C@@H]2CCCN2S(=O)(=O)c2ccc(F)cc2)cc(-c2ccc(C(F)(F)F)cc2)n1)c1ccccn1 (stereo partly drawn) [Example 408, 1-[(4-Fluorophenyl)sulfonyl]-N-({2-[(1-pyridin-2-ylethyl)amino]-6-[4-(trifluoromethyl)phenyl]pyridin-4-yl}methyl)-L-prolinamide]",7.27
18,"CC(Nc1cc(CNC(=O)[C@@H]2CCCN2S(=O)(=O)c2ccc(Cl)s2)cc(-c2ccc(C(F)(F)F)cc2)n1)c1ccccn1 (stereo partly drawn) [Example 409, 1-[(5-Chlorothiophen-2-yl)sulfonyl]-N-({2-[(1-pyridin-2-ylethyl)amino]-6-[4-(trifluoromethyl)phenyl]pyridin-4-yl}methyl)-L-prolinamide]",7.19
19,"CC(Nc1cc(CNC(=O)[C@@H]2CC(F)(F)CN2S(=O)(=O)c2ccc(F)cc2)cc(-c2ccc(C(F)(F)F)cc2)n1)c1ccccc1 (stereo partly drawn) [Example 410, 4,4-Difluoro-1-[(4-fluorophenyl)sulfonyl]-N-({2-[(1-phenylethyl)amino]-6-[4-(trifluoromethyl)phenyl]pyridin-4-yl}methyl)-L-prolinamide]",5.90
20,"CC(Nc1cc(CNC(=O)[C@@H]2CC(F)(F)CN2S(=O)(=O)c2ccc(Cl)s2)cc(-c2ccc(C(F)(F)F)cc2)n1)c1ccccc1 (stereo partly drawn) [Example 411, 1-[(5-Chlorothiophen-2-yl)sulfonyl]-4,4-difluoro-N-({2-[(1-phenylethyl)amino]-6-[4-(trifluoromethyl)phenyl]pyridin-4-yl}methyl)-L-prolinamide]",5.85
21,"CC(Nc1cc(CNC(=O)[C@@H]2C=CCN2S(=O)(=O)c2ccc(F)cc2)cc(-c2ccc(C(F)(F)F)cc2)n1)c1ccncc1 (stereo partly drawn) [Example 412, (2S)-1-[(4-Fluorophenyl)sulfonyl]-N-({2-[(1-pyridin-4-ylethyl)amino]-6-[4-(trifluoromethyl)phenyl]pyridin-4-yl}methyl)-2,5-dihydro-1H-pyrrole-2-carboxamide]",5.90
22,"CC(Nc1cc(CNC(=O)[C@@H]2CCCN2S(=O)(=O)c2ccc(F)cc2)cc(-c2ccc(C(F)(F)F)cc2)n1)c1ccccc1 (stereo partly drawn) [Example 413, 1-[(4-Fluorophenyl)sulfonyl]-N-({2-[(1-phenylethyl)amino]-6-[4-(trifluoromethyl)phenyl]pyridin-4-yl}methyl)-L-prolinamide]",6.57
23,"CC(Nc1cc(CNC(=O)[C@@H]2CCCN2S(=O)(=O)c2ccc(Cl)s2)cc(-c2ccc(C(F)(F)F)cc2)n1)c1ccccc1 (stereo partly drawn) [Example 414, 1-[(5-Chlorothiophen-2-yl)sulfonyl]-N-({2-[(1-phenylethyl)amino]-6-[4-(trifluoromethyl)phenyl]pyridin-4-yl}methyl)-L-prolinamide]",7.24
24,"CC(Nc1cc(CNC(=O)[C@@H]2CC(F)(F)CN2S(=O)(=O)c2ccc(Cl)s2)cc(-c2ccc(C(F)(F)F)cc2)n1)c1ccccn1 (stereo partly drawn) [Example 415, 1-[(5-Chlorothiophen-2-yl)sulfonyl]-4,4-difluoro-N-({2-[(1-pyridin-2-ylethyl)amino]-6-[4-(trifluoromethyl)phenyl]pyridin-4-yl}methyl)-L-prolinamide]",6.24
25,"CC(Nc1cc(CNC(=O)[C@@H]2CC(F)(F)CN2S(=O)(=O)c2ccc(F)cc2)cc(-c2ccc(C(F)(F)F)cc2)n1)c1ccccn1 (stereo partly drawn) [Example 416, 4,4-Difluoro-1-[(4-fluorophenyl)sulfonyl]-N-({2-[(1-pyridin-2-ylethyl)amino]-6-[4-(trifluoromethyl)phenyl]pyridin-4-yl}methyl)-L-prolinamide]",5.98
